In patent US10227298B2, “Solid forms of a pharmaceutically active compound” (Hoffmann-La Roche Inc., priority 2014, dated 2019):

Experiment: aqueous solubility of the crystalline forms
Assay type: physicochemical
Details: pH 1.5, aqueous buffer, in water at physiological pHs (pH1.5-8.0)

SMILES: COc1cc(C(=O)O)ccc1NC(=O)[C@@H]1N[C@@H](CC(C)(C)C)[C@](C#N)(c2ccc(Cl)cc2F)[C@H]1c1cccc(Cl)c1F [Compound A, 4-{[(2R,3S,4R,5S)-4-(4-Chloro-2-fluoro-phenyl)-3-(3-chloro-2-fluoro-phenyl)-4-cyano-5-(2,2-dimethyl-propyl)-pyrrolidine-2-carbonyl]-amino}-3-methoxy-benzoic acid]
- solubility: < 0.05 µg/mL
